Patent US20250114345A1, “COMPOUNDS AND COMPOSITIONS AS CBP/P300 DEGRADERS AND USES THEREOF” (Oncopia Therapeutics, Inc. d/b/a/ SK Life Science Labs, priority 2023, published 2025)

How the values were obtained:
[1] = target: T1, CBP (Homo sapiens, UniProt Q92793); experiment: CBP degradation, HiBit technology in A549 CBP HiBit cells (24 h); format: cell-based; conditions: 24 hrs post treatment
T1 construct: host or cells: A549 CBP HiBit cells
How it was run: (§1)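 Degradation potency and Dmax came from luminescence after 10 min room-temperature lysis with HiBit detection buffer. Beforehand, HiBit-tagged A549 lines received serial compound dilutions (10 mM DMSO stocks) at 37 °C, 5% CO2. CBP cells were read at 24 h, p300 cells at 2 h.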

[2] = target: T2, p300 (Homo sapiens, UniProt Q09472); experiment: P300 degradation, HiBit technology in A549 P300 HiBit cells (2 h); format: cell-based; conditions: 2 hrs post treatment; for Dmax: A549, A549 P300 HiBit cells; for DC50: A549 P300 HiBit cells
T2 construct: host or cells: A549 P300 HiBit cells
T2 sequence (Q09472 whole entry): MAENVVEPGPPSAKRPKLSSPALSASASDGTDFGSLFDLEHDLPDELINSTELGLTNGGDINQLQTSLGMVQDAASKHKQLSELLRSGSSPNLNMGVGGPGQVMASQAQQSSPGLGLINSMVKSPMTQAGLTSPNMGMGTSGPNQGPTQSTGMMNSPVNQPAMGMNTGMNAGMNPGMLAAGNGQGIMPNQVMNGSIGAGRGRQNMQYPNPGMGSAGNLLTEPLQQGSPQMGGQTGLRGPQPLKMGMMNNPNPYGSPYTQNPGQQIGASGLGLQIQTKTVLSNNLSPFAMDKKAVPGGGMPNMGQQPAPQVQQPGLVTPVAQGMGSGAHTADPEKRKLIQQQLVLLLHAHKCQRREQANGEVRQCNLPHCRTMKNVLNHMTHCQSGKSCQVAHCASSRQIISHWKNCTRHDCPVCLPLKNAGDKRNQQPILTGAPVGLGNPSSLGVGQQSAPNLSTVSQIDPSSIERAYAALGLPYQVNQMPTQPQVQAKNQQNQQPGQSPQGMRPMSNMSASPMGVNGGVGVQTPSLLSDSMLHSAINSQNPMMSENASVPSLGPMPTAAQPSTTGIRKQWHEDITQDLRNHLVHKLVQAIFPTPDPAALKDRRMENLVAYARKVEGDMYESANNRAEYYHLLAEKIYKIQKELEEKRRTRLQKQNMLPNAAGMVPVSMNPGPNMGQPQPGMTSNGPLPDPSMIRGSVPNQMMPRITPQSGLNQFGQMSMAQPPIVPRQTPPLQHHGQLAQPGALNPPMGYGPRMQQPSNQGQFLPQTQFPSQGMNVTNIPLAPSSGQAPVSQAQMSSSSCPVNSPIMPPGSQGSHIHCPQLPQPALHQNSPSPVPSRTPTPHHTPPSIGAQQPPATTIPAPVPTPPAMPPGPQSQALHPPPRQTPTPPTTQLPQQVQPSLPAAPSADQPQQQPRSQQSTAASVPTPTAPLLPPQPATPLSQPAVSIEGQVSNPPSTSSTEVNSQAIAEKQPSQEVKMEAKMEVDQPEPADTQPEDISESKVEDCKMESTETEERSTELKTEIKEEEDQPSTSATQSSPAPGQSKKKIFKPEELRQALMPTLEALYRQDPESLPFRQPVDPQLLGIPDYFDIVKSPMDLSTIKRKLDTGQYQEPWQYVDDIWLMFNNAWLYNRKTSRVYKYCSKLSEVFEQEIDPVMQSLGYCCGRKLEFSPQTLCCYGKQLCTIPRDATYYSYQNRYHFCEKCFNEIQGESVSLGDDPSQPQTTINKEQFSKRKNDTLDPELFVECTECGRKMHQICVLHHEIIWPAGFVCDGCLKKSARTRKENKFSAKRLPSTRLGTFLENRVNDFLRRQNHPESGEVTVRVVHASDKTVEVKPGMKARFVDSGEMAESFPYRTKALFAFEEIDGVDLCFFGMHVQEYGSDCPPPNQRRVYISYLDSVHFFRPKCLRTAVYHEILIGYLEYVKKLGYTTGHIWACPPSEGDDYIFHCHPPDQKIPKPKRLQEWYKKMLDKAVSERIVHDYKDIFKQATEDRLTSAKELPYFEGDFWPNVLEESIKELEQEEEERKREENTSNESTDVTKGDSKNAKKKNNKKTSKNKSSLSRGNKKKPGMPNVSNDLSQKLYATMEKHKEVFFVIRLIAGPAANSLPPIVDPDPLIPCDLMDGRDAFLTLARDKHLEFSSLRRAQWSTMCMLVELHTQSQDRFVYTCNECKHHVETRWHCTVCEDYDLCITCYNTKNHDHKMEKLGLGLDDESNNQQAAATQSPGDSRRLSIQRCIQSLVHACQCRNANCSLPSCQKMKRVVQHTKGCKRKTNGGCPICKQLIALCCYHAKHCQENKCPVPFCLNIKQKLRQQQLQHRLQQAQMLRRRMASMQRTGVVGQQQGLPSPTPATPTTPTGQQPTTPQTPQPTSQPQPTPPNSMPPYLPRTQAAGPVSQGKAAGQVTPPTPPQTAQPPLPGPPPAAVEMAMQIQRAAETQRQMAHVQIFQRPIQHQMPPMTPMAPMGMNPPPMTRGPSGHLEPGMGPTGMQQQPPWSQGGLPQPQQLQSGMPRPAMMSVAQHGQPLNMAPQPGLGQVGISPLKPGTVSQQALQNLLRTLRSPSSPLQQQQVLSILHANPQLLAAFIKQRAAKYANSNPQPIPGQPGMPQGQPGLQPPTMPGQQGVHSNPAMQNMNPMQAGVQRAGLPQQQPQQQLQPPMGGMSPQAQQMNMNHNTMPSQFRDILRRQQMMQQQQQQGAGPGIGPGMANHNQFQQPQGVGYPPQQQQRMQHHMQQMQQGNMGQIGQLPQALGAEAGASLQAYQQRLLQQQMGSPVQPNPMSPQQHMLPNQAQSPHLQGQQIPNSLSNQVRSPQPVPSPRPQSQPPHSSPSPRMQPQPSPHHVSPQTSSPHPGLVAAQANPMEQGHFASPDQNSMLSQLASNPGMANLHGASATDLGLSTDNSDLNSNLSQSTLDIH
How it was run: as §1

T1 sequence (Q92793 whole entry): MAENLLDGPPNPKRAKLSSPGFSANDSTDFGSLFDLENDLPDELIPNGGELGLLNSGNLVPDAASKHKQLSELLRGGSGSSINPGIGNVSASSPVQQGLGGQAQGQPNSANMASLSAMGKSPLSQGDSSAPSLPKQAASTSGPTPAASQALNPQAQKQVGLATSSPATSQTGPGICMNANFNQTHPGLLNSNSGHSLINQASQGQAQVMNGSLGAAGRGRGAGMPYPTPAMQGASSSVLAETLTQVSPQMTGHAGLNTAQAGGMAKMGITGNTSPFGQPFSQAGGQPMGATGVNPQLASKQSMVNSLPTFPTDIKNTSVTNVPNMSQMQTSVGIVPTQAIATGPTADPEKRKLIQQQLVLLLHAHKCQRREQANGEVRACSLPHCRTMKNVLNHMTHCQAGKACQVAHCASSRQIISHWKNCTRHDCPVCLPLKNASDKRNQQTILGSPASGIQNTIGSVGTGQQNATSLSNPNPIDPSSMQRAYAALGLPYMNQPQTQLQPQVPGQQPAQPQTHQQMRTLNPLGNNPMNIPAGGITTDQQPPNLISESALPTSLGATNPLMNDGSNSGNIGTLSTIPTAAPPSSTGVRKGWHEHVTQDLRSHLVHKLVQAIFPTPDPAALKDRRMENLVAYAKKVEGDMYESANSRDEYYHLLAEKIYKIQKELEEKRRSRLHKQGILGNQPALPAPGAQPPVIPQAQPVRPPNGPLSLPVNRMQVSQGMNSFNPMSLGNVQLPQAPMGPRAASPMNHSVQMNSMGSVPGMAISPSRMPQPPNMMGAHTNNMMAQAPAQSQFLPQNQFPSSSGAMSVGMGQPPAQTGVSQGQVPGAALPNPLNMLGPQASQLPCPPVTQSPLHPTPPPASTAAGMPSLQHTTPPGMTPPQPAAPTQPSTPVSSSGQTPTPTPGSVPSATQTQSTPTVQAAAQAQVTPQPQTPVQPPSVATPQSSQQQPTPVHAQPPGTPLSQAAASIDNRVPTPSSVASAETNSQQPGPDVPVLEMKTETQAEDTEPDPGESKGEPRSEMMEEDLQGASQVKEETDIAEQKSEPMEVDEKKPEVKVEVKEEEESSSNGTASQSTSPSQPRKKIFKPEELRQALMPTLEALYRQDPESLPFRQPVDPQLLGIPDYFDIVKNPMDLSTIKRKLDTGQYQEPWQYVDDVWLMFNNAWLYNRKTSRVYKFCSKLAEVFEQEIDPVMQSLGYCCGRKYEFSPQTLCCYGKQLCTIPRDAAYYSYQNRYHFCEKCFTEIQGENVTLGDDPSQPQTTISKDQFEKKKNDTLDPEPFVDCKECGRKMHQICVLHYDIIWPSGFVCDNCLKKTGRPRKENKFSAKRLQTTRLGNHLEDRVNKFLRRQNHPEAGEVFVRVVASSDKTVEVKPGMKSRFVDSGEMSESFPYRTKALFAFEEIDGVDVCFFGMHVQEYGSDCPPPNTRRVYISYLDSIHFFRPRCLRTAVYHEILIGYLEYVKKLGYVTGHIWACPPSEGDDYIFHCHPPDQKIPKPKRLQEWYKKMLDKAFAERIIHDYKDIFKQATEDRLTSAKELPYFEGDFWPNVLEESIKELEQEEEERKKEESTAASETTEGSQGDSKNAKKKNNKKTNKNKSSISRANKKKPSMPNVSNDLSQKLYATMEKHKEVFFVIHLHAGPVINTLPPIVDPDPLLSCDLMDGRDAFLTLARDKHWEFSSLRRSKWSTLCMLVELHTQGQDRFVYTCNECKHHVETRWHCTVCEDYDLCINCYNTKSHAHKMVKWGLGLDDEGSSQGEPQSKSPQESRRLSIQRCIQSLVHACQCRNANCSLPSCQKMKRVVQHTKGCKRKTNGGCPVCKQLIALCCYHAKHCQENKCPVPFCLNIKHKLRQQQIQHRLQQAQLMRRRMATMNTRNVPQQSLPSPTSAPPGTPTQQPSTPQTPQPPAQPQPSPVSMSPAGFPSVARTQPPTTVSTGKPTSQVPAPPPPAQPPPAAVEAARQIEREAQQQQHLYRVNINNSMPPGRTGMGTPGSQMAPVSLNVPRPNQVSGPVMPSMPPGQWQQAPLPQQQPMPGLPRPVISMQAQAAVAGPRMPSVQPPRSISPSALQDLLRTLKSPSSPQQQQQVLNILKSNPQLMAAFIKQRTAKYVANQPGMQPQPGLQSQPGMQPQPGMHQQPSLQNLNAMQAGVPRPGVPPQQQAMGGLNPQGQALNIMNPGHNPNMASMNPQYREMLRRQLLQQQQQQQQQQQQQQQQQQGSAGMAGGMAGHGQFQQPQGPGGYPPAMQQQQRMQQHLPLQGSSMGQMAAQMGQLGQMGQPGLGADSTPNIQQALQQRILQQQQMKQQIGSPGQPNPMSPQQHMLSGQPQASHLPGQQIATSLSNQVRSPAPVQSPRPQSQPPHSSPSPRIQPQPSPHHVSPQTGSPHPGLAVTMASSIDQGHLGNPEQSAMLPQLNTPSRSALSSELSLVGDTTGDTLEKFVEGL

Structure (SMILES) | DC50 [1] [nM] | Dmax [1] [%] | Dmax [2] [%] | DC50 [2] [nM]
Cc1cc(-c2ncc3c(n2)CCCN3c2cc(C3CCOCC3)cc3c2cc(C)c(=O)n3C)cnc1C(=O)NCC#Cc1cc2c(C3CCC(=O)NC3=O)cccc2o1 (stereo not shown) [Example B141, 5-(5-(1,3-dimethyl-2-oxo-7-(tetrahydro-2H-pyran-4-yl)-1,2-dihydroquinolin-5-yl)-5,6,7,8-tetrahydropyrido[3,2-d]pyrimidin-2-yl)-N-(3-(4-(2,6-dioxopiperidin-3-yl)benzofuran-2-yl)prop-2-yn-1-yl)-3-methylpicolinamide] | 10 to 99 | 20 to 39 | > 80 | < 1
Cc1cc2c(N3CCCc4nc(-c5ccc(C(=O)NCC#Cc6cc7cccc(C8CCC(=O)NC8=O)c7o6)nc5)ncc43)cc(C3CCOCC3)cc2n(C)c1=O (stereo not shown) [Example B148, 5-(5-(1,3-dimethyl-2-oxo-7-(tetrahydro-2H-pyran-4-yl)-1,2-dihydroquinolin-5-yl)-5,6,7,8-tetrahydropyrido[3,2-d]pyrimidin-2-yl)-N-(3-(7-(2,6-dioxopiperidin-3-yl)benzofuran-2-yl)prop-2-yn-1-yl)picolinamide] | > 1000 | < 20 | 60 to 79 | 1 to 9.9
Cc1cc(-c2ncc3c(n2)CCCN3c2cccc3c2cc(C)c(=O)n3C)cnc1C(=O)NCC#Cc1cc2c(C3CCC(=O)NC3=O)cccc2o1 (stereo not shown) [Example B153, 5-(5-(1,3-dimethyl-2-oxo-1,2-dihydroquinolin-5-yl)-5,6,7,8-tetrahydropyrido[3,2-d]pyrimidin-2-yl)-N-(3-(4-(2,6-dioxopiperidin-3-yl)benzofuran-2-yl)prop-2-yn-1-yl)-3-methylpicolinamide] | 100 to 999 | < 20 | > 80 | < 1
Cc1cc2c(N3CCCc4nc(-c5ccc(C(=O)NCC#Cc6ccc7c(c6)c(C6CCC(=O)NC6=O)nn7C)nc5)ncc43)cc(C3CCOCC3)cc2n(C)c1=O (stereo not shown) [Example B154, 5-(5-(1,3-dimethyl-2-oxo-7-(tetrahydro-2H-pyran-4-yl)-1,2-dihydroquinolin-5-yl)-5,6,7,8-tetrahydropyrido[3,2-d]pyrimidin-2-yl)-N-(3-(3-(2,6-dioxopiperidin-3-yl)-1-methyl-1H-indazol-5-yl)prop-2-yn-1-yl)picolinamide] | 1 to 9.9 | 60 to 79 | > 80 | 1 to 9.9
Cc1cc2c(N3CCCc4nc(-c5ccc(C(=O)NCC#Cc6nc7cccc(C8CCC(=O)NC8=O)n7n6)nc5)ncc43)cc(C3CCOCC3)cc2n(C)c1=O (stereo not shown) [Example B156, 5-(5-(1,3-dimethyl-2-oxo-7-(tetrahydro-2H-pyran-4-yl)-1,2-dihydroquinolin-5-yl)-5,6,7,8-tetrahydropyrido[3,2-d]pyrimidin-2-yl)-N-(3-(5-(2,6-dioxopiperidin-3-yl)-[1,2,4]triazolo [1,5-a]pyridin-2-yl)prop-2-yn-1-yl) picolinamide] | > 1000 | < 20 | 20 to 39 | 10 to 99
Cc1cc2c(N3CCCc4nc(-c5ccc(C(=O)NCC#Cc6cc7c(C8CCC(=O)NC8=O)nccc7o6)nc5)ncc43)cc(C(C)C)cc2n(C)c1=O (stereo not shown) [Example B157, N-(3-(4-(2,6-dioxopiperidin-3-yl)furo[3,2-c]pyridin-2-yl)prop-2-yn-1-yl)-5-(5-(7-isopropyl-1,3-dimethyl-2-oxo-1,2-dihydroquinolin-5-yl)-5,6,7,8-tetrahydropyrido[3,2-d]pyrimidin-2-yl) picolinamide] | 10 to 99 | 20 to 39 | > 80 | 1 to 9.9
Cc1cc2c(N3CCCc4nc(-c5ccc(C(=O)NCC#Cc6cc7c(C8CCC(=O)NC8=O)cccc7o6)nc5)ncc43)cc(C3CC4CCC(C3)O4)nc2n(C)c1=O (stereo not shown) [Example B159, 5-(5-(2-(8-oxabicyclo[3.2.1]octan-3-yl)-6,8-dimethyl-7-oxo-7,8-dihydro-1,8-naphthyridin-4-yl)-5,6,7,8-tetrahydropyrido[3,2-d]pyrimidin-2-yl)-N-(3-(4-(2,6-dioxopiperidin-3-yl)benzofuran-2-yl)prop-2-yn-1-yl)picolinamide] | 100 to 999 | 20 to 39 | > 80 | 1 to 9.9
Cc1cc2c(-c3cn(C)c(=O)c4cc(-c5ccc(C(=O)NCC#Cc6cc7c(C8CCC(=O)NC8=O)cccc7o6)nc5)ncc34)cc(C3CCOCC3)nc2n(C)c1=O (stereo not shown) [Example B160, 5-(8-(6,8-dimethyl-7-oxo-2-(tetrahydro-2H-pyran-4-yl)-7,8-dihydro-1,8-naphthyridin-4-yl)-6-methyl-5-oxo-5,6-dihydro-2,6-naphthyridin-3-yl)-N-(3-(4-(2,6-dioxopiperidin-3-yl)benzofuran-2-yl)prop-2-yn-1-yl)picolinamide] | > 1000 | < 20 | > 80 | 1 to 9.9
Cc1cc2c(N3CCCc4nc(-c5ccc(C(=O)NCC#Cc6cc7c(C8CCC(=O)NC8=O)cccc7o6)nc5)ncc43)cc(C3CCC3)cc2n(C)c1=O (stereo not shown) [Example B161, 5-(5-(7-cyclobutyl-1,3-dimethyl-2-oxo-1,2-dihydroquinolin-5-yl)-5,6,7,8-tetrahydropyrido [3,2-d]pyrimidin-2-yl)-N-(3-(4-(2,6-dioxo-piperidin-3-yl)benzofuran-2-yl)prop-2-yn-1-yl)picolinamide] | > 1000 | < 20 | > 80 | 1 to 9.9
Cc1cc2c(N3CCCc4nc(-c5ccc(C(=O)NCC#Cc6cc7c(C8CCC(=O)NC8=O)cccc7o6)nc5)ncc43)nc(N3CCC(C)(O)CC3)cc2n(C)c1=O (stereo not shown) [Example B162, N-(3-(4-(2,6-dioxopiperidin-3-yl)benzofuran-2-yl)prop-2-yn-1-yl)-5-(5-(7-(4-hydroxy-4-methylpiperidin-1-yl)-1,3-dimethyl-2-oxo-1,2-dihydro-1,6-naphthyridin-5-yl)-5,6,7,8-tetrahydropyrido[3,2-d]pyrimidin-2-yl) picolinamide] | > 1000 | < 20 | > 80 | 1 to 9.9
Cc1cc2c(N3CCCc4nc(-c5ccc(C(=O)NCC#Cc6cc7c(C8CCC(=O)NC8=O)cccc7o6)nc5)ncc43)cc(C3COC3)nc2n(C)c1=O (stereo not shown) [Example B163, 5-(5-(6,8-dimethyl-2-(oxetan-3-yl)-7-oxo-7,8-dihydro-1,8-naphthyridin-4-yl)-5,6,7,8-tetrahydropyrido[3,2-d]pyrimidin-2-yl)-N-(3-(4-(2,6-dioxopiperidin-3-yl)benzofuran-2-yl)prop-2-yn-1-yl)picolinamide] | > 1000 | < 20 | > 80 | < 1
Cc1cc2c(N3CCCc4nc(-c5ccc(C(=O)NCC#Cc6cc7c(C8CCC(=O)NC8=O)cccc7o6)nc5)ncc43)cc(C3CCC3)nc2n(C)c1=O (stereo not shown) [Example B164, 5-(5-(2-cyclobutyl-6,8-dimethyl-7-oxo-7,8-dihydro-1,8-naphthyridin-4-yl)-5,6,7,8-tetra-hydropyrido[3,2-d]pyrimidin-2-yl)-N-(3-(4-(2,6-dioxopiperidin-3-yl)benzofuran-2-yl)prop-2-yn-1-yl)picolinamide] | > 1000 | < 20 | > 80 | 10 to 99
Cc1cc(-c2ncc3c(n2)CCCN3c2cc(C3CCOCC3)cc3c2cc(C)c(=O)n3C)cnc1C(=O)NCC#Cc1cc2c(C3CCC(=O)NC3=O)cccc2s1 (stereo not shown) [Example B165, 5-(5-(1,3-dimethyl-2-oxo-7-(tetrahydro-2H-pyran-4-yl)-1,2-dihydroquinolin-5-yl)-5,6,7,8-tetrahydropyrido[3,2-d]pyrimidin-2-yl)-N-(3-(4-(2,6-dioxopiperidin-3-yl)benzo[b]thiophen-2-yl)prop-2-yn-1-yl)-3-methylpicolinamide] | 10 to 99 | 20 to 39 | > 80 | 1 to 9.9
Cc1cc2c(N3CCOc4nc(-c5ccc(C(=O)NCC#Cc6cc7c(C8CCC(=O)NC8=O)cccc7o6)nc5)ncc43)cc(C3CCOCC3)nc2n(C)c1=O (stereo not shown) [Example B166, 5-(5-(6,8-dimethyl-7-oxo-2-(tetrahydro-2H-pyran-4-yl)-7,8-dihydro-1,8-naphthyridin-4-yl)-6,7-dihydro-5H-pyrimido[4,5-b][1,4]oxazin-2-yl)-N-(3-(4-(2,6-dioxopiperidin-3-yl)benzofuran-2-yl)prop-2-yn-1-yl) picolinamide] | > 1000 | < 20 | 60 to 79 | 1 to 9.9
Cc1cc(-c2cc3cccc(-c4nc(N5CCOCC5)cc5c4cc(C)c(=O)n5C)c3cn2)cnc1C(=O)NCC#Cc1cc2c(C3CCC(=O)NC3=O)cccc2o1 (stereo not shown) [Example B167, 5-(8-(1,3-dimethyl-7-morpholino-2-oxo-1,2-dihydro-1,6-naphthyridin-5-yl)isoquinolin-3-yl)-N-(3-(4-(2,6-dioxopiperidin-3-yl)benzofuran-2-yl)prop-2-yn-1-yl)-3-methylpicolinamide] | 1 to 9.9 | 60 to 79 | > 80 | 1 to 9.9
Cc1cc2c(N3CCCc4nc(-c5ccc(C(=O)NCC#Cc6cc7c(C8CCC(=O)NC8=O)cccc7o6)nc5)ncc43)nc(N3CC(C)(O)C3)cc2n(C)c1=O (stereo not shown) [Example B168, N-(3-(4-(2,6-dioxopiperidin-3-yl)benzofuran-2-yl)prop-2-yn-1-yl)-5-(5-(7-(3-hydroxy-3-methylazetidin-1-yl)-1,3-dimethyl-2-oxo-1,2-dihydro-1,6-naphthyridin-5-yl)-5,6,7,8-tetrahydropyrido[3,2-d]pyrimidin-2-yl) picolinamide] | > 1000 | < 20 | > 80 | < 1
